{"source": "patent US5196424A", "about": "“N-[2-amino-4-substituted[[(pyrrollo or pyrido)[2,3-d]pyrimidinyl]-alkyl]benzoyl]-L-glutamic acids” (priority 1992, dated 1993)", "key": {"CCRF-CEM cells": {"tested_on": "CCRF-CEM cells", "test": "Growth inhibition of CCRF-CEM human leukemia cells, 72 h, Coulter counter (Table I)", "type": "cell-based", "conditions": "read-out: IC50, concentration required for 50% inhibition of growth", "method": "Cluster plates were prepared in duplicate with the compound at various concentrations ranging from 100 μg/ml to 0.005 μg/ml. Test compounds were dissolved initially in DMSO and further diluted with solvent to the desired concentration."}, "6C3HED lymphosarcoma": {"tested_on": "6C3HED lymphosarcoma", "test": "In vivo test against transplanted 6C3HED (Gardner) lymphosarcoma in C3H mice (Table II)", "method": "The compounds were tested in C3H mice bearing a 6C3HED lymphosarcoma, also known as the Gardner lymphosarcoma (GLS). The 6C3HED lymphosarcoma was obtained from the Division of Cancer Treatment, National Cancer Institute, Tumor Bank, maintained at E. G. and G. Mason Research (Worcester, Massachusetts). First passage tumor was stored in liquid nitrogen using standard techniques. The transplanted tumor was reestablished from the Tumor Bank every six months or as needed. The tumor was maintained by serial passage twice weekly in C3H mice.\nIn the procedure, the tumor was removed from passage animals and minced into 1- to 3-mm square fragments using sterile techniques. Tumor pieces were checked for sterility using both Antibiotic Medium 1 and Brain Heart Infusion (Difco, Detroit, Mich.). Recipient mice were shaved and tumor pieces were implanted subcutaneiously in the auxiliary region by trocar. Drug therapy on the appropriate schedule was initiated on the day after tumor implant. The compound being tested was mixed with 2.5 weight % of a polyoxyethylated oil known as \"Emulphor EL 620\" surfactant from GAF Chemicals Corporation (1:40 dilution of Empulphor in saline). All animals were weighed at the beginning and end of administration of the subject compounds. Food and water were provided ad libitum. The drug was administered in 0.5 ml of 2.5% Emulphor. Unless otherwise indicated, the compound was administered once per day for eight days. The tumor was measured the day after treatment ended with two dimensional measurements (width and length) of the tumor taken using digital electronic calipers interfaced to a microcomputer, J. F. Worzalla, et al., Investigational New Drugs, 8, 241-251 (1990). Tumor weights were calculated from these measurements using the following formula:\n(tumor weight in mg)=width in mm)^2 ×(length in mm)/2\nAt least one control group of an equal number of mice was treated with the same volume of 2.5% Emulphor only."}, "[1]": {"biological_target": "T1, human dihydrofolate reductase (DHFR) (Homo sapiens, UniProt P00374)", "T1 construct": "was obtained from human leukemic lymphoblasts (WI-L2/M4 cells); endogenous in cells; host or cells: WI-L2/M4 human leukemic lymphoblasts; enzyme purified from the cells according to Delcamp et al., Biochemistry 22, 633-639 (1983)", "T1 sequence (P00374 1-187)": "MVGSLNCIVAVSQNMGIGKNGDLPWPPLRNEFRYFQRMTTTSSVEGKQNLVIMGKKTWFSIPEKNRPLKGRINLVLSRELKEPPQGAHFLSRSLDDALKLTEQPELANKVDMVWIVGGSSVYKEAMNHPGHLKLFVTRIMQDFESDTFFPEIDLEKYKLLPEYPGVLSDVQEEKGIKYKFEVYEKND", "test": "Inhibition of isolated human dihydrofolate reductase (Table III)", "type": "biochemical", "conditions": "DHFR (5 × 10^-8 M); read-out: DHFR IC50, concentration required for 50% inhibition of enzyme activity"}, "[2]": {"tested_on": "C3H Mammary Adenocarcinoma", "conditions": "Days 1,3,5,7,9"}, "dihydrofolic reducatase": {"tested_on": "dihydrofolic reducatase", "conditions": "background statement; cited from earlier work"}, "[3]": {"conditions": "CCRF-CEM cells, 72 h incubation"}}, "note": "Read-outs that look alike come from different tables or passages of the source."}
{"smiles": "Nc1nc(Cl)c2c(CCc3ccc(C(=O)N[C@@H](CCC(=O)O)C(=O)O)cc3)c[nH]c2n1", "note": "[Example 1, N-[2-amino-4-chloro-[[pyrrolo[2,3-d]-pyrimidin-5-yl]-ethyl]benzoyl]-L-glutamic acid]", "values": [{"measurement": "IC50", "setting": "CCRF-CEM cells; [3]", "result": "> 20", "unit": "µg/mL"}]}
{"smiles": "Nc1ncc2c(CCc3ccc(C(=O)N[C@@H](CCC(=O)O)C(=O)O)cc3)c[nH]c2n1", "note": "[Example 3, N-[2-amino-[[pyrrolo[2,3-d]-pyrimidin-5-yl]-ethyl]benzoyl]-L-glutamic acid]", "values": [{"measurement": "IC50", "setting": "CCRF-CEM cells; [3]", "result": 0.019, "unit": "µg/mL"}]}
{"smiles": "CCN(CC)c1nc(N)nc2[nH]cc(CCc3ccc(C(=O)N[C@@H](CCC(=O)O)C(=O)O)cc3)c12", "note": "[Example 6, N-[2-amino-4-diethylamino-[[pyrrolo[2,3-d]-pyrimidin-5-yl]-ethyl]benzoyl]-L-glutamic acid]", "values": [{"measurement": "IC50", "setting": "CCRF-CEM cells; [3]", "result": 0.9, "unit": "µg/mL"}]}
{"smiles": "Nc1ncc2c(n1)NCC2CCc1ccc(C(=O)N[C@@H](CCC(=O)O)C(=O)O)cc1", "note": "(stereo partly drawn) [Example 4, N-[2-amino-[di-hydropyrrolo[2,3-d]pyrimidin-5-yl]-ethyl]benzoyl-L-glutamicacid]", "values": [{"measurement": "IC50", "setting": "CCRF-CEM cells; [3]", "result": 0.005, "unit": "µg/mL"}, {"measurement": "% INH (percent inhibition of tumor)", "setting": "6C3HED lymphosarcoma; 0.25 mg/kg, Dailyx8", "result": 0, "unit": "%"}, {"measurement": "Toxic/Total", "setting": "6C3HED lymphosarcoma; 0.25 mg/kg, Dailyx8", "result": "0/10"}, {"measurement": "% INH (percent inhibition of tumor)", "setting": "6C3HED lymphosarcoma; 0.50 mg/kg, Dailyx8", "result": 1, "unit": "%"}, {"measurement": "Toxic/Total", "setting": "6C3HED lymphosarcoma; 0.50 mg/kg, Dailyx8", "result": "0/10"}, {"measurement": "Toxic/Total", "setting": "6C3HED lymphosarcoma; 1.00 mg/kg, Dailyx8", "result": "0/10"}, {"measurement": "% INH (percent inhibition of tumor)", "setting": "6C3HED lymphosarcoma; 2.00 mg/kg, Dailyx8", "result": 97, "unit": "%"}, {"measurement": "Toxic/Total", "setting": "6C3HED lymphosarcoma; 2.00 mg/kg, Dailyx8", "result": "0/10"}, {"measurement": "% INH (percent inhibition of tumor)", "setting": "6C3HED lymphosarcoma; 2 mg/kg, Days 1,3,5,7", "result": 49, "unit": "%"}, {"measurement": "Toxic/Total", "setting": "6C3HED lymphosarcoma; 2 mg/kg, Days 1,3,5,7", "result": "0/10"}, {"measurement": "% INH (percent inhibition of tumor)", "setting": "6C3HED lymphosarcoma; 4.00 mg/kg, Dailyx8", "result": 100, "unit": "%"}, {"measurement": "Toxic/Total", "setting": "6C3HED lymphosarcoma; 4.00 mg/kg, Dailyx8", "result": "1/10"}, {"measurement": "% INH (percent inhibition of tumor)", "setting": "6C3HED lymphosarcoma; 4 mg/kg, Days 1,3,5,7", "result": 99, "unit": "%"}, {"measurement": "Toxic/Total", "setting": "6C3HED lymphosarcoma; 4 mg/kg, Days 1,3,5,7", "result": "0/10"}, {"measurement": "% INH (percent inhibition of tumor)", "setting": "6C3HED lymphosarcoma; 6.25 mg/kg, Dailyx8", "result": 100, "unit": "%"}, {"measurement": "Toxic/Total", "setting": "6C3HED lymphosarcoma; 6.25 mg/kg, Dailyx8", "result": "6/10"}, {"measurement": "Toxic/Total", "setting": "6C3HED lymphosarcoma; 8 mg/kg, Days 1,3,5,7", "result": "0/10"}, {"measurement": "% INH (percent inhibition of tumor)", "setting": "6C3HED lymphosarcoma; 12.5 mg/kg, Dailyx8", "result": 100, "unit": "%"}, {"measurement": "Toxic/Total", "setting": "6C3HED lymphosarcoma; 12.5 mg/kg, Dailyx8", "result": "8/10"}, {"measurement": "% INH (percent inhibition of tumor)", "setting": "6C3HED lymphosarcoma; 16 mg/kg, Days 1,3,5,7", "result": 100, "unit": "%"}, {"measurement": "Toxic/Total", "setting": "6C3HED lymphosarcoma; 16 mg/kg, Days 1,3,5,7", "result": "0/10"}, {"measurement": "Toxic/Total", "setting": "6C3HED lymphosarcoma; 25 mg/kg, Dailyx8", "result": "10/10"}, {"measurement": "Toxic/Total", "setting": "6C3HED lymphosarcoma; 50 mg/kg, Dailyx8", "result": "10/10"}, {"measurement": "IC50", "setting": "[1]", "result": 96, "unit": "nM"}, {"measurement": "Toxic/Total", "setting": "[2]; 1 mg/kg", "result": "0/10"}, {"measurement": "% INH (percent inhibition of tumor)", "setting": "[2]; 2 mg/kg", "result": 10, "unit": "%"}, {"measurement": "Toxic/Total", "setting": "[2]; 2 mg/kg", "result": "0/10"}, {"measurement": "% INH (percent inhibition of tumor)", "setting": "[2]; 4 mg/kg", "result": 24, "unit": "%"}, {"measurement": "Toxic/Total", "setting": "[2]; 4 mg/kg", "result": "0/10"}, {"measurement": "% INH (percent inhibition of tumor)", "setting": "[2]; 16 mg/kg", "result": 92, "unit": "%"}, {"measurement": "% INH (percent inhibition of tumor)", "setting": "[2]; 32 mg/kg", "result": 95, "unit": "%"}]}
{"smiles": "Nc1ncc2c(n1)NCC(CCc1ccc(C(=O)N[C@@H](CCC(=O)O)C(=O)O)cc1)C2", "note": "(stereo partly drawn) [Example 7, N-[2-amino-[[tetrahydropyrido[2,3-d]-pyrimidin-6-yl]-ethyl]benzoyl]-L-glutamic acid]", "values": [{"measurement": "IC50", "setting": "CCRF-CEM cells; CCRF-CEM, 72 h", "result": 0.005, "unit": "µg/mL"}]}
{"smiles": "CN(Cc1cnc2nc(N)nc(N)c2n1)c1ccc(C(=O)N[C@@H](CCC(=O)O)C(=O)O)cc1", "note": "[amethopterin]", "values": [{"measurement": "inhibition of the second reduction, from dihydrofolic acid to tetrahydrofolic acid", "setting": "dihydrofolic reducatase", "result": "inhibit the second reduction"}]}
{"smiles": "COc1nc(N)nc2[nH]cc(CCc3ccc(C(=O)N[C@@H](CCC(=O)O)C(=O)O)cc3)c12", "note": "[Example 5, N-[2-amino-4-methoxy[[pyrrolo[2,3-d]-pyrimidin-5-yl]-ethyl]benzoyl]-L-glutamic acid]", "values": [{"measurement": "IC50", "setting": "CCRF-CEM cells; [3]", "result": "> 2", "unit": "µg/mL"}]}
{"smiles": "Nc1nc(S)c2c(CCc3ccc(C(=O)N[C@@H](CCC(=O)O)C(=O)O)cc3)c[nH]c2n1", "note": "[Example 2, N-[2-amino-4-mercapto[[pyrrolo[2,3-d]-pyrimidin-5-yl]-ethyl]benzoyl]-L-glutamic acid]", "values": [{"measurement": "IC50", "setting": "CCRF-CEM cells; [3]", "result": 0.032, "unit": "µg/mL"}]}
